How the values were obtained:
Assay in all cases: Kinase panel biochemical assay
Settings in all cases: 1 μM single concentration, read-out: % residual enzyme activity
ARAF = ARAF (Homo sapiens, UniProt P10398)
Protocol: (§1) In order to measure the protein kinase inhibitory activity (% inhibition) of the compounds of the present invention, biochemical assays were performed on the full kinase panel listed in the following Table 1.
(§2) As an test compound, 1-(3-(7-((6-(4-ethylpiperazine-1-carbonyl)pyridin-3-yl)amino)-1-methyl-2-oxo-1,4-dihydropyrimido[4,5-d]pyrimidin-3(2H)-yl)-4-methylphenyl)-3-(2-methoxyphenyl)urea (Compound No. 14) was used. The kinase inhibitory efficacy was measured upon treatment with a 1 μM single concentration of the test compound to calculate % residual enzyme activity value.
(§3) ABL1, FGFR2, TAOK2/TAO1, EPHA5, EPHB2, EPHB3, RET, LYN B, EPHA2, FRK/PTK5, EPHA8, LCK, EPHB4, FYN, KHS/MAP4K5, DDR1, EPHA3, P38a/MAPK14, EPHA4, FMS, EPHB1, HCK, FGFR1, ABL2/ARG, EPHA6, c-Src, ACK1, FLT4NEGFR3, ERBB4/HER4, DDR2, KDRNEGFR2, LYN, ZAK/MLTK, YES/YES1, BLK, FGR, MLCK2/MYLK2, TAOK1, BMX/ETK, BTK, EPHA1, JAK1, P38b/MAPK11, TIE2/TEK, FLT1NEGFR1, TXK, SRMS, RAF1, SIK1, MLK3/MAP3K11, PEAK1, TRKA, EPHA7, GLK/MAP4K3, MLK2/MAP3K10, TEC, CSK, TRKC, FES/FPS, SIK2, FGFR3, BRK, YSK4/MAP3K19, ARAF, PDGFRb, TNK1, GCK/MAP4K2, PDGFRa, TNIK, TAK1, ERBB2/HER2, LIMK1, HIPK4, FER, EGFR, JAK2, HPK1/MAP4K1, TRKB, RIPK3, LOK/STK10, LIMK2, MLK1/MAP3K9, BRAF, MEKK3, MEK5, STK32B/YANK2, FGFR4, MEKK2, SLK/STK2, FLT3, PKAcg, TAOK3/JIK, TYRO3/SKY, SIK3, IR, LRRK2, PYK2, NEK11, p70S6K/RPS6KB1, LATS2.

BRAF = BRAF (Homo sapiens, UniProt P15056)
Protocol: as §1, §2, §3

BRK = BRK (Homo sapiens, UniProt Q13882)
Protocol: as §1, §2, §3

BTK = BTK (Homo sapiens, UniProt Q06187)
Protocol: as §1, §2, §3

CSK = CSK (Homo sapiens, UniProt P41240)
Protocol: as §1, §2, §3

DDR1 = DDR1 (Homo sapiens, UniProt Q08345)
Sequence of DDR1 (Q08345 19-913): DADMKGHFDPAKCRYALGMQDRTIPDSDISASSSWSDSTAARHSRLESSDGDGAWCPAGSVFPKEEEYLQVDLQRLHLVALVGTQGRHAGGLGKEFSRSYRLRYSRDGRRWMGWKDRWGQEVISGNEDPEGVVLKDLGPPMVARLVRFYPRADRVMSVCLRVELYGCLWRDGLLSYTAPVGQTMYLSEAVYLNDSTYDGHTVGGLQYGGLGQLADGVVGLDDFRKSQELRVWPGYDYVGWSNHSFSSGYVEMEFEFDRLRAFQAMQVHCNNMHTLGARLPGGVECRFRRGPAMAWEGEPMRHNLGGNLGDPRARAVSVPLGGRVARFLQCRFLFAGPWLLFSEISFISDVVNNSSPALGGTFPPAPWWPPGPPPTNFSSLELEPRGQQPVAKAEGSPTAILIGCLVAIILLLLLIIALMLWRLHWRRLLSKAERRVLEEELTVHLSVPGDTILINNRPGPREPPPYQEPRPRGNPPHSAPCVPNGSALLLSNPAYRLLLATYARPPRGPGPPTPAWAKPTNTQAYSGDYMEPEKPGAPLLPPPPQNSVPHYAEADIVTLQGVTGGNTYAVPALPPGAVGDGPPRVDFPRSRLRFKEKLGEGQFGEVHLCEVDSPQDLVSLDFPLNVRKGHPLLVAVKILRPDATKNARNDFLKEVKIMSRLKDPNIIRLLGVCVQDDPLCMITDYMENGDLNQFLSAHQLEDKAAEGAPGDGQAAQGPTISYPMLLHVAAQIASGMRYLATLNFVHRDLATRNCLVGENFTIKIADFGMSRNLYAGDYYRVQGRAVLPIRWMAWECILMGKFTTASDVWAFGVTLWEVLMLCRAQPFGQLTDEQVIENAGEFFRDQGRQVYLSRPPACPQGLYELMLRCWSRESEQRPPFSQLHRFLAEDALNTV
Protocol: as §1, §2, §3

EPHA1 = EPHA1 (Homo sapiens, UniProt P21709)
Protocol: as §1, §2, §3

EPHA7 = EPHA7 (Homo sapiens, UniProt Q15375)
Protocol: as §1, §2, §3

EPHA8 = EPHA8 (Homo sapiens, UniProt P29322)
Protocol: as §1, §2, §3

ERBB4/HER4 = ERBB4/HER4 (Homo sapiens, UniProt Q15303)
Protocol: as §1, §2, §3

FYN = FYN (Homo sapiens, UniProt P06241)
Protocol: as §1, §2, §3

HIPK4 = HIPK4 (Homo sapiens, UniProt Q8NE63)
Protocol: as §1, §2, §3

KHS/MAP4K5 = KHS/MAP4K5 (Homo sapiens, UniProt Q9Y4K4)
Protocol: as §1, §2, §3

LATS2 = LATS2 (Homo sapiens, UniProt Q9NRM7)
Protocol: as §1, §2, §3

LCK = LCK (Homo sapiens, UniProt P06239)
Protocol: as §1, §2, §3

LIMK1 = LIMK1 (Homo sapiens, UniProt P53667)
Protocol: as §1, §2, §3

LIMK2 = LIMK2 (Homo sapiens, UniProt P53671)
Protocol: as §1, §2, §3

MLK3/MAP3K11 = MLK3/MAP3K11 (Homo sapiens, UniProt Q16584)
Protocol: as §1, §2, §3

NEK11 = NEK11 (Homo sapiens, UniProt Q8NG66)
Protocol: as §1, §2, §3

P38a/MAPK14 = P38a/MAPK14 (Homo sapiens, UniProt Q16539)
Sequence of P38a/MAPK14 (Q16539 whole entry): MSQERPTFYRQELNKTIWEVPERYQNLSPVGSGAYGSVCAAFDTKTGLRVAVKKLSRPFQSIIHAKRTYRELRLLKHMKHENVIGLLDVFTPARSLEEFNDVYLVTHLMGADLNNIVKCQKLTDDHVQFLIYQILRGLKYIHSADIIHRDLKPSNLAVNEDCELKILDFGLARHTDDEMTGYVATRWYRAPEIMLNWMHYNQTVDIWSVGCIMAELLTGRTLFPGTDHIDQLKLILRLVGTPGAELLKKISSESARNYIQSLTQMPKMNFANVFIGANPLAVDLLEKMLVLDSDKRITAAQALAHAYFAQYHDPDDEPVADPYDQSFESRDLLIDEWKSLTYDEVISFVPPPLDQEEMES
Protocol: as §1, §2, §3

RET = RET (Homo sapiens, UniProt P07949)
Sequence of RET (P07949 29-1114): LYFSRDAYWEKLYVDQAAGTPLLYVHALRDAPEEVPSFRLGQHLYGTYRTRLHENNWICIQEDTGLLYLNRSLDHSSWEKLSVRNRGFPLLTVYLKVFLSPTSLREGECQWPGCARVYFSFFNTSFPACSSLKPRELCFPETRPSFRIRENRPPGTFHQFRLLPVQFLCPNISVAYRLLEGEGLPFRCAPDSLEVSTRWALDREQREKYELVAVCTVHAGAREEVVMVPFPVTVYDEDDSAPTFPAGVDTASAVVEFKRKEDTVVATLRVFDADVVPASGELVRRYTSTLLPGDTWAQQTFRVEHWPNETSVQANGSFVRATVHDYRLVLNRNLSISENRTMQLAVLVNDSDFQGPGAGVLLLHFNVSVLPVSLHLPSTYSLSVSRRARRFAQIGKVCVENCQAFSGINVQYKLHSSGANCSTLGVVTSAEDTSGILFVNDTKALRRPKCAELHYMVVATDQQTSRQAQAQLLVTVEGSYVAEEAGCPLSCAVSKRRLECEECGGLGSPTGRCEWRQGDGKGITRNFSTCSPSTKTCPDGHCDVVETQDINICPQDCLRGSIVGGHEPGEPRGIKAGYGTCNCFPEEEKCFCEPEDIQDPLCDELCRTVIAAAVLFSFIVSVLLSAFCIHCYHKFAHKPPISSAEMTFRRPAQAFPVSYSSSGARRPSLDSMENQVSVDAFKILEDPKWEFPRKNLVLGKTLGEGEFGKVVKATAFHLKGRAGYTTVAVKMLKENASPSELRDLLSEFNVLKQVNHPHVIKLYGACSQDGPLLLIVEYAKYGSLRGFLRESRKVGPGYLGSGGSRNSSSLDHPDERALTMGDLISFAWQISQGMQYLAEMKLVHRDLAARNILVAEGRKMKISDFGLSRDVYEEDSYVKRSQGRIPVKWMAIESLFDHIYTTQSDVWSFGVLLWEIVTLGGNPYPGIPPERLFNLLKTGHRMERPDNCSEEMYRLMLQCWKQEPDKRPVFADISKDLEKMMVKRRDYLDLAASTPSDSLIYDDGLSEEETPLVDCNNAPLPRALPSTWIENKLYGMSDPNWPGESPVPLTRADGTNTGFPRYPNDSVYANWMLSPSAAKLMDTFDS
Protocol: as §1, §2, §3

RIPK3 = RIPK3 (Homo sapiens, UniProt Q9Y572)
Sequence of RIPK3 (Q9Y572 whole entry): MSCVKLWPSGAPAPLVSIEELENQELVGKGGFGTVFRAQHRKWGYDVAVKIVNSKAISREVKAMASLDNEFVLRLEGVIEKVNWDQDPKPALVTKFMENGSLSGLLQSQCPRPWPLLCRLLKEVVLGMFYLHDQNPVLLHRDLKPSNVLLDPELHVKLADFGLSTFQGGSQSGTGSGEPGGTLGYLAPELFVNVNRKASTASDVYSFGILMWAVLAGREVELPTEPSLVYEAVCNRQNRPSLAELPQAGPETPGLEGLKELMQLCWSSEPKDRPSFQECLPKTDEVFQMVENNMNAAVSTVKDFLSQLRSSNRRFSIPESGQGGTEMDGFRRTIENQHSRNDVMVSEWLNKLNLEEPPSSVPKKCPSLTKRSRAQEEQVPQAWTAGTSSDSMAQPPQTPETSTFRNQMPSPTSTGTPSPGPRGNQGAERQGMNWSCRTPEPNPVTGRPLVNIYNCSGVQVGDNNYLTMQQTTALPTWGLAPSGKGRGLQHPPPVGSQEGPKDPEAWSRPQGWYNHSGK
Protocol: as §1, §2, §3

SIK3 = SIK3 (Homo sapiens, UniProt Q9Y2K2)
Sequence of SIK3 (Q9Y2K2 whole entry): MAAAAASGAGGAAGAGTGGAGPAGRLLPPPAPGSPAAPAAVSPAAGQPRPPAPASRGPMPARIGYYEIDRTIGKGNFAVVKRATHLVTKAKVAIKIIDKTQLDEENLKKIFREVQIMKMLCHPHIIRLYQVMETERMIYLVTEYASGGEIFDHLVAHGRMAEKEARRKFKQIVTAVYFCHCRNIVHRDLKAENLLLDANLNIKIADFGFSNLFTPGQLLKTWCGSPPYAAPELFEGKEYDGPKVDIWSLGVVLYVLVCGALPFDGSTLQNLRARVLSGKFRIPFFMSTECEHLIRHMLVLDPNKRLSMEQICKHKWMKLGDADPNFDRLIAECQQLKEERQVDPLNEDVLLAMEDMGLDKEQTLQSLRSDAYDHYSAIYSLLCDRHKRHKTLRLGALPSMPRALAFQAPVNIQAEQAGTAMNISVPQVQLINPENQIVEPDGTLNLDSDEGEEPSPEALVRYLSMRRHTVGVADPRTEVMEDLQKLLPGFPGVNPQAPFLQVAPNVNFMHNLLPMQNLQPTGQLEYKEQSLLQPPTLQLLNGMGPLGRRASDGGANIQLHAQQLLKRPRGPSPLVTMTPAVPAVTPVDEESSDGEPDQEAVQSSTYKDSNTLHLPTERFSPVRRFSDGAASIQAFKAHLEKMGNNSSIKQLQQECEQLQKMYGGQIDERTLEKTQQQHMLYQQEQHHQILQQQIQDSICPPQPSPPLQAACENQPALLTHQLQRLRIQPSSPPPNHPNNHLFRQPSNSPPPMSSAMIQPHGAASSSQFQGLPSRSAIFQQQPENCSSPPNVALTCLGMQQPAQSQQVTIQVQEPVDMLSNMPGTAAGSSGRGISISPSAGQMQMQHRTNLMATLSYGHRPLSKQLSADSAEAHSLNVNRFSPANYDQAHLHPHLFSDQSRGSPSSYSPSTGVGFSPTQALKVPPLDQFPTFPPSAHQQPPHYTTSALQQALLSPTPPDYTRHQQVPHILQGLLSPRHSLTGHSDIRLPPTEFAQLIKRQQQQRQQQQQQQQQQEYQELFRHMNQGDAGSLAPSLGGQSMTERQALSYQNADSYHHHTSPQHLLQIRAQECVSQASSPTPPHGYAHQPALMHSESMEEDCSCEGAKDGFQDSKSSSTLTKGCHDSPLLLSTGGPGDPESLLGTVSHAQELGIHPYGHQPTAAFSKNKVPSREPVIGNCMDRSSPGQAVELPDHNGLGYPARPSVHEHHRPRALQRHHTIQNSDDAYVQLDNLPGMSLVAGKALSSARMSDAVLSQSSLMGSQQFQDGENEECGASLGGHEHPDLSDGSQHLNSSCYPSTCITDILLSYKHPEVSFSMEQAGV
Protocol: as §1, §2, §3

SLK/STK2 = SLK/STK2 (Homo sapiens, UniProt Q9H2G2)
Protocol: as §1, §2, §3

STK32B/YANK2 = STK32B/YANK2 (Homo sapiens, UniProt Q9NY57)
Protocol: as §1, §2, §3

TAOK1 = TAOK1 (Homo sapiens, UniProt Q7L7X3)
Protocol: as §1, §2, §3

TAOK3/JIK = TAOK3/JIK (Homo sapiens, UniProt Q9H2K8)
Sequence of TAOK3/JIK (Q9H2K8 whole entry): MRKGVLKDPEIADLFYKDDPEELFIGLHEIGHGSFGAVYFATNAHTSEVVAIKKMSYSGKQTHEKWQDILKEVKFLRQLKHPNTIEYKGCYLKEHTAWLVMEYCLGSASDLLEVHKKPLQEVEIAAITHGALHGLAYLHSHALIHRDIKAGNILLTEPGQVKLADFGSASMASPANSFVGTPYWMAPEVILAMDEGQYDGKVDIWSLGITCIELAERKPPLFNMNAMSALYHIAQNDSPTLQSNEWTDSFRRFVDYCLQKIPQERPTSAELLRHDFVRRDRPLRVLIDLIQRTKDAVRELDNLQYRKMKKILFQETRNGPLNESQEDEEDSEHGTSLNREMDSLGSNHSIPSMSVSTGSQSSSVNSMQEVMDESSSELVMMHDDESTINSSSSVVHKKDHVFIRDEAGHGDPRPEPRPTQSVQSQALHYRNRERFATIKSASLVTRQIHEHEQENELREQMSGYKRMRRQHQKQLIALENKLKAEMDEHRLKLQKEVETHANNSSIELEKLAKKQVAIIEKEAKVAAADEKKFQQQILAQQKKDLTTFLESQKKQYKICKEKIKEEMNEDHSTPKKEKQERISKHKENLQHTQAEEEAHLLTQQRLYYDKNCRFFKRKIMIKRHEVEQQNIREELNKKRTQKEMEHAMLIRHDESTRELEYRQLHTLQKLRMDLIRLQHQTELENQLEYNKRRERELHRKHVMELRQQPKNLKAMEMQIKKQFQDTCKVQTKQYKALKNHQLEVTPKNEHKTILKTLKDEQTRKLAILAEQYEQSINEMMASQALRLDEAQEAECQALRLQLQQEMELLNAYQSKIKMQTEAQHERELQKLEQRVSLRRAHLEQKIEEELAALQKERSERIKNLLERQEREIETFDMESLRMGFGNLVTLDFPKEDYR
Protocol: as §1, §2, §3

TEC = TEC (Homo sapiens, UniProt P42680)
Protocol: as §1, §2, §3

TIE2/TEK = TIE2/TEK (Homo sapiens, UniProt Q02763)
Protocol: as §1, §2, §3

TXK = TXK (Homo sapiens, UniProt P42681)
Protocol: as §1, §2, §3

TYRO3/SKY = TYRO3/SKY (Homo sapiens, UniProt Q06418)
Protocol: as §1, §2, §3

Measured: remaining activity at 1 µM

CCN1CCN(C(=O)c2ccc(Nc3ncc4c(n3)N(C)C(=O)N(c3cc(NC(=O)Nc5ccccc5OC)ccc3C)C4)cn2)CC1 [Compound No. 14, 1-(3-(7-((6-(4-ethylpiperazin-1-carbonyl)pyridin-3-yl)amino)-1-methyl-2-oxo-1,4-dihydropyrimido[4,5-d]pyrimidin-3(2H)-yl)-4-methylphenyl)-3-(2-methoxyphenyl)urea]
≤ 30%: all assays above

Reference: US10059717B2, “Urea compounds containing 3,4-dihydropyrimido[4,5-D]pyrimidin-2(1H)-one skeleton as protein kinase inhibitors” (KOREA INSTITUTE OF SCIENCE AND TECHNOLOGY, priority 2016, dated 2018)
